{"source": "paper PMC4456360", "about": "“A Recombinant Fungal Lectin for Labeling Truncated Glycans on Human Cancer Cells” (PLoS ONE, 2015)", "key": {"[1]": {"system": "glandular compartment of the stomach and small intestine", "test": "Labeling of healthy tissues by biotinylated rPVL", "conditions": "100 mM GlcNAc", "description": "Ethanol-fixed human trachea, esophagus, duodenal junction, jejunum, colon, pancreas, liver, ovary, uterus and vagina samples were obtained from organ donors. 18 tissue samples from 10 different individuals were used to prepare a tissue microarray (TMA) of healthy tissues.\nThe tissue sections were deparaffinized, then endogenous peroxidases were blocked by incubating the sections with PBS containing 3% hydrogen peroxide (v/v), for 5 mn. The sections were then blocked with BSA 5% (w/v) for 30 min at room temperature, followed by incubation with 0,7–1 μg ml^-1 biotinylated rPVL 1h at room temperature (Ethanol-fixed sections) or 2 μg ml^-1 of biotinylated rPVL in PBS at 4°C for 18h (for formalin-fixed sections). After washing the sections twice with PBS, an indirect biotin-streptavidin system and DAB (Ventana Medical Systems) or AEC (Vector laboratories) detection kits were used according to the manufacturer’s instructions. The developed slides were washed twice with PBS and counterstained with hematoxylin. After washing with water, the sections were dehydrated and mounted. Sections were observed under a BX41 microscope equipped with a DP-70 digital camera system (Olympus, Tokyo, Japan) or imaged with a NanoZoomer slide-scanner (Hamamatsu, Hamamatsu City)."}, "HBEC-3KT cell line": {"system": "HBEC-3KT cell line", "format": "cell-based, human"}, "M119": {"system": "M119", "set-up": "key to the marks not given beside the values", "conditions": "M119, Melanoma"}, "A549 cells": {"system": "A549 cells", "test": "Flow cytometry, lectin binding to A549 cells (glycosylation inhibitors, glycosidases)", "format": "cell-based, human", "conditions": "for Percentage of inhibition of MAH binding (mean fluorescence intensity): MAH 5 μg ml^-1; for Percentage of inhibition of rPVL binding (mean fluorescence intensity): biotinylated rPVL 1 μg ml^-1"}}}
{"compound": "CC(=O)N[C@@H]1[C@@H](O)[C@H](O)[C@@H](CO)O[C@H]1O", "note": "[GlcNAc, N-acetylglucosamine]", "values": [{"measurement": "inhibition of rPVL staining by GlcNAc (in words)", "setting": "[1]", "result": "partial inhibition"}, {"measurement": "inhibition of rPVL binding by GlcNAc (in words)", "setting": "HBEC-3KT cell line", "result": "complete inhibition"}, {"measurement": "Inhibtion by GlcNac (of PVL staining)", "setting": "M119", "result": "++"}]}
{"compound": "3-fluoro-peracetyl-neuraminic acid [3F-NeuAc]", "values": [{"measurement": "Percentage of inhibition of MAH binding (mean fluorescence intensity)", "setting": "A549 cells; A549 cells grown 4 days with 100 μM Fluoro-Neu5Ac", "result": 75, "unit": "%"}, {"measurement": "Percentage of inhibition of rPVL binding (mean fluorescence intensity)", "setting": "A549 cells", "result": 59, "unit": "%"}]}
{"compound": "CC(=O)OC1O[C@@H](C)[C@@H](OC(C)=O)[C@@H](OC(C)=O)[C@@H]1F", "note": "(stereo partly shown) [2-FF, 2-fluoro-peracetyl fucose]", "values": [{"measurement": "Percentage of inhibition of MAH binding (mean fluorescence intensity)", "setting": "A549 cells; A549 cells grown 4 days with 400 μM 2-Fluoro-Fucose, listed as 2F-fucose", "result": "did not affect"}, {"measurement": "Percentage of inhibition of rPVL binding (mean fluorescence intensity)", "setting": "A549 cells; listed as 2F-fucose", "result": "did not affect"}]}
